Measured values taken from patent publication US9737532B2, “Method of treating ischemia/reperfusion injury” (TOKYO UNIVERSITY OF SCIENCE FOUNDATION, priority 2011, dated 2017).
Where two headings read alike, the source gives them in different places. Where a SMILES comes first, the peptide text is derived from it. The star is where a group is joined. Cbz = O=C(OCc1ccccc1)*

Assays:
Parp1 mRNA = Parp1 mRNA by RT-PCR; format: cell-based, mouse; settings: 24 hours, FIG. 3A
Protocol: Cells were lyzed by RNAiso PLUS (TaKaRa, Japan), and then total RNA was purified using a FastPure RNA kit (TaKaRa, Japan) according to manufacturer's protocol. […] RNA was subjected to reverse transcription with PrimeScript Reverse Transcriptase (TaKaRa, Japan) and random hexamer (TaKaRa, Japan). The PCR reaction was performed using Platinum Taq DNA Polymerase High Fidelity (Invitrogen, USA) and Parp1 (forward, 5′-[…]-3′ (SEQ ID NO:6); reverse, 5′-[…]-3′ (SEQ ID NO:7)) or β-actin primers (forward, 5′-[…]-3′ (SEQ ID NO:8); reverse, 5′-[…]-3′ (SEQ ID NO:9)) as follows: initiation step, at 94° C. for 1 min; amplification step, 30 (Parp1) or 25 (β-actin) cycles of at 94° C. for 1 min, at 52° C. (Parp1) or 61° C. (β-actin) for 15 sec, at 68° C. for 15 sec; termination step, 68° C. 15 sec. PCR products were subjected to 1.8% agarose gel electrophoresis, stained with ethidium bromide, and visualized with LAS3000. The data was analyzed using MultiGauge software (FUJI FILM, Japan).

Parp1 protein [1] = assay: Parp1 protein levels by Western blotting in human cell lines; format: cell-based
caspase-3 = caspase-3 activation by Western blotting in mouse fibroblast cells; format: cell-based; settings: 24 hours
Parp1 = settings: cited from earlier work
Parp1 protein [2] = assay: Parp1 protein levels by Western blotting in mouse cells; format: cell-based; settings: for Parp1 reduction, p53 dependency: MEFs from p53+/+ or −/− mice; for reduction in Parp1 protein: summary statement of the discussion; for basal Parp1 protein levels: MG132 alone, 5 μM
Source text: Mouse fibroblast cell line 3T3-L1, human lung cancer cell line A549, and human hepatoma cell line HepG2 were purchased from the RIKEN Bioresource Center (Japan). Mouse fibroblast cell line 3T3-F442A and human osteosarcoma cell line U2OS were purchased from the European Collection of Animal Cell Cultures (U.K.). p53 deficient mouse-derived fibroblast cell line HW (J. Med. Chem. (2010) 53, 4561-4584) was kindly provided by Dr. Masayuki Saito (Tenshi University, Japan). The cells were maintained in Dulbecco's modified Eagle's medium (low glucose) (WAKO, Japan) with 10% (3T3-L1, 3T3-F442A, HW, U2OS, and HepG2) or 5% (A549) fetal calf serum and 1% penicillin/streptomycin (SIGMA). Cpt and MG132 were purchased from WAKO (Japan).
We designed a mouse p53 shRNA expression vector based on target sequences for effective p53 knockdown, as previously reported (J. Biol. Chem. (2003) 278, 11731-11734). Two oligonucleotides, 5′-gatcccc[…]ttcaagaga[…]ttttt ggaaa-3′ (SEQ ID NO:1) and 5′-agcttttccaaaaa[…]tctcttgaa[…] ACggg-3′ (SEQ ID NO:2) (upper case letters, target sequences against p53; lower case letters, BgIII, HindIII or loop structure sequences) were chemically synthesized (Operon Biotechnology, USA). The annealed oligos were directly ligated into a BgIII and HindIII-digested pSUPER-puro shRNA expression vector gifted from Dr. Shigeo Ohno (Yokohama City University, Japan) (Cell Sci. (2006) 119, 2107-2118). The produced vector, termed pSUPER-puro-shmp53, was transfected with Lipofectamine LTX (Invitrogen, USA) into 3T3-L1 cells, according to the manufacturer's protocol. For stable p53 knockdown cell lines, the transfected cells were selected with puromycin and resistant clones were isolated by trypsinization using cloning cylinders.
p53 heterozygous mice (Accession Number, CDB 0001K) (Oncogene (1993) 8, 3313-3322) were purchased from RIKEN BRC (Saitama, Japan). p53 heterozygous males and females were crossed, and MEFs were prepared from the pregnant females. Each 13- to 15-day-old embryo was dissected from the uterus and washed with PBS. After removal of the head, tail, limbs, and blood-enriched organs, the trimmed embryo was washed with PBS and minced. After trypsinization at 37° C. for 10 min followed by inactivation of trypsin by addition of FCS, MEFs were separated by filtration through a cell-strainer. p53 status was confirmed by PCR using previously described primers (forward primer for p53 genomic sequence, 5′-[…]-3′ (SEQ ID NO:3); reverse primer for p53 genomic sequence, 5′-[…]-3′ (SEQ ID NO:4), forward primer for neo sequence, 5′-[…]-3′ (SEQ ID NO:5)) (Oncogene (1993) 8, 3313-3322), and the established MEFs were maintained in DMEM high glucose with 10% FCS, 2-mercaptoethanol (2-ME), and antibiotics.
Cells were lyzed by the addition of lysis buffer (50 mM Tris-HCl pH6.8, 2% SDS, 5% glycerol), boiled for 5 min, and sonicated. Protein concentrations of the soluble fraction were determined by BCA protein assay (PIERCE, USA) according to the manufacturer's protocol, and standardized by the addition of lysis buffer. Following this, the proteins were added to 2-ME and bromophenol blue so as to obtain final concentrations of 5% and 0.025%, respectively, and boiled for 5 min. Equal amounts of proteins (5 to 20 μg) were subjected to SDS-PAGE and transferred to nitrocellulose membranes. The membranes were blocked with 2.5% skim milk and 0.25% BSA in TBS (50 mM Tris, pH 7.4, 150 mM NaCl) containing 0.1% Tween 20 (TTBS) for 1 h at room temperature, and then probed with appropriate primary antibodies overnight at 4° C. or for 2 h at room temperature. As primary antibodies, anti-Parp1 (clone C-2-10, WAKO, Japan), anti-p53 (clone Ab-1, Calbiochem, USA), anti-βactin (clone AC-15, SIGMA, USA), or anti-caspase-3 (clone 1F3, MBL, Japan) antibodies were used. […]

p53 = p53 protein stabilization by Western blotting in mouse fibroblast cells; format: cell-based; settings: for p53 accumulation: summary statement of the discussion; for p53 protein stabilization: 8 hours, FIG. 4A; for p53 stabilization: 24 hours, FIG. 1A
[3] = 3T3-F442A cells, 8 hours, FIGS. 4A and 4B
[4] = 3T3-F442A cells, 24 hours, FIGS. 1A and 1B
[5] = 3T3-L1 cells, 8 hours, FIGS. 4A and 4B
[6] = 3T3-L1 cells, 24 hours, FIGS. 1A and 1B

Compound: COc1ccc(C2=N[C@@H](c3ccc(Cl)cc3)[C@@H](c3ccc(Cl)cc3)N2C(=O)N2CCNC(=O)C2)c(OC(C)C)c1 [Nutlin3a]
- Parp1 mRNA (Parp1 mRNA; p53 deficient cell lines (3T3-L1/shp53 and HW)): did not change
- Parp1 mRNA (Parp1 mRNA; p53 proficient cell lines (3T3-L1 and 3T3-F442A)): did not change
- Nutlin3a-induced Parp1 decrease (Parp1 protein [1]; A549 cells, 24 h, FIG. 1D): detected the Nutlin3a-induced Parp1 decrease in only A549 cells
- reduction in Parp1 protein (Parp1 protein [1]; HCT116 cells, various doses of Nutlin3a, data not shown): no significant reduction in Parp1 protein other than apoptotic cleavage
- caspase-3 activation (caspase-3; 3T3-F442A cells): no caspase-3 activation
- caspase-3 activation (caspase-3; 3T3-L1 cells): no caspase-3 activation
- cell viability (trypan blue exclusion) (3T3-L1 cells): the cells were viable
- cleavage of Parp1 (Parp1; human colon cancer cell line HCT116): induces cleavage of Parp1 into two apoptotic fragments
- cleavage of Parp1 (Parp1; human myeloid leukemia cell line ML-1): induces cleavage of Parp1 into two apoptotic fragments
- Parp1 protein levels (Parp1 protein [2]; [3]): markedly decreased the Parp1 protein levels
- Parp1 protein levels (Parp1 protein [2]; [4]): markedly decreased it
- decrease in Parp1 (Parp1 protein [2]; 3T3-L1/shp53 cells (p53 stable knockdown), FIG. 2B): diminished significantly
- decrease in Parp1 (Parp1 protein [2]; 3T3-L1 cells with shRNA-mediated transient knockdown of p53, FIG. 2A): attenuated the decrease in Parp1
- Parp1 protein levels (Parp1 protein [2]; [5]): markedly decreased the Parp1 protein levels
- Parp1 protein levels (Parp1 protein [2]; [6]): markedly decreased it
- Parp1 protein, time course (Parp1 protein [2]; 3T3-L1 or 3T3-F442A cells, 25 μM for 8 h, FIG. 1C): Parp1 protein diminished
- decrease in Parp1 (Parp1 protein [2]; HW cells (p53 deficient), FIG. 2B): diminished significantly
- Parp1 reduction, p53 dependency (Parp1 protein [2]; 24 hours, FIG. 2C): reduces the Parp1 protein levels in a p53-dependent manner
- levels of full length of Parp1 protein (Parp1 protein [2]; Nutlin3a-treated 3T3-L1, first observation): significant reduction in the levels of full length of Parp1 protein without cleavage into p85 and p25 apoptotic fragments

Compound: N.N.[Cl][Pt][Cl] [cisplatin]
- p53 accumulation (p53): induced p53 accumulation
- Parp1 protein levels (Parp1 protein [2]; cisplatin treatment, data not shown): did not affect Parp1 protein levels
- reduction in Parp1 protein (Parp1 protein [2]): did not evoke a significant reduction in Parp1 protein

Compound: COc1ccc(C2=N[C@H](c3ccc(C(F)(F)F)cc3)[C@H](c3ccc(C(F)(F)F)cc3)N2C(=O)N2CCNC(=O)C2)c(OC(C)C)c1 [Caylin2]
- p53 protein stabilization (p53; 3T3-F442A cells): induced p53 protein stabilization
- p53 protein stabilization (p53; 3T3-L1 cells): induced p53 protein stabilization
- Parp1 cleavage / Parp1 protein (Parp1 protein [2]; 20 μM Caylin2, 8 hours): induced Parp1 protein decrease without any trace of its apoptotic cleavage
- Parp1 cleavage / Parp1 protein (Parp1 protein [2]; 100 μM Caylin2, 8 hours): induced Parp1 cleavage
- Parp1 protein levels (Parp1 protein [2]; [3]): markedly decreased the Parp1 protein levels
- Parp1 protein levels (Parp1 protein [2]; [5]): markedly decreased the Parp1 protein levels
- Parp1 reduction, p53 dependency (Parp1 protein [2]; 8 hours, FIGS. 5A and 5B): reduces the Parp1 protein levels in a p53-dependent manner

Compound: CC(C)C[C@@H](C=O)NC(=O)[C@H](CC(C)C)NC(=O)[C@H](CC(C)C)NC(=O)OCc1ccccc1 [MG132] (Cbz-Leu-Leu-Leu-aldehyde)
- p53 accumulation (p53): induced p53 accumulation
- effect on Caylin2-induced reduction in Parp1 (Parp1 protein [2]; 5 μM MG132 with 20 μM Caylin2, 8 hours, 3T3-L1 cells, FIG. 6B): clearly inhibited the Caylin2-induced reduction in Parp1
- effect on Nutlin3a-induced reduction in Parp1 (Parp1 protein [2]; 5 μM MG132 with 25 μM Nutlin3a, 8 hours, 3T3-L1 and 3T3-F442A cells, FIG. 3B): clearly inhibited the Nutlin3a-induced reduction in Parp1
- basal Parp1 protein levels (Parp1 protein [2]; 8 hours, 3T3-L1 and 3T3-F442A cells, FIG. 3B): did not affect basal Parp1 protein levels
- basal Parp1 protein levels (Parp1 protein [2]; 8 hours, 3T3-L1 cells, FIG. 6B): did not affect basal Parp1 protein levels
- reduction in Parp1 protein (Parp1 protein [2]): did not evoke a significant reduction in Parp1 protein

Compound: CC[C@@]1(O)C(=O)OCc2c1cc1n(c2=O)Cc2cc3ccccc3nc2-1 [Cpt, camptothecin]
- caspase-3 activation (caspase-3; 3T3-F442A cells): no caspase-3 activation
- caspase-3 activation (caspase-3; 3T3-L1 cells): no caspase-3 activation
- p53 stabilization (p53; 3T3-F442A cells): induced p53 stabilization
- p53 stabilization (p53; 3T3-L1 cells): induced p53 stabilization
- p53 accumulation (p53): induced p53 accumulation
- Parp1 protein levels (Parp1 protein [2]; [4]): did not alter the Parp1 protein levels
- Parp1 protein levels (Parp1 protein [2]; [6]): did not alter the Parp1 protein levels
- reduction in Parp1 protein (Parp1 protein [2]): did not evoke a significant reduction in Parp1 protein
